The results in this text go back to ChEMBL document CHEMBL1201862, “PubChem BioAssay data set” (2004).

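Test compounds were applied to cells in 96-well plates for 48 hours at 5 doses. Abbreviation: GI50, concentration required for 50% inhibition of growth.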 Calls of active or inactive are those of the source. Rule as the data show it: active = GI50 up to about 1.1 µM and inactive = higher. Positions of bridges follow the written chain, without caps; N, C: chain ends. Non-standard residues stand in square brackets, D forms with d. Residues, ends and D or L forms follow the SMILES beside them. ξ: configuration not given here. *: point of attachment. X28 = O=C(/C=C/C=C/C=C/C=C/C=C/C(=O)*)NC1=C(O)CCC1=O; Pro(4R-Me) = C[C@H]1CN[C@H](C(=O)O)C1; NMeA = CN[C@@H](C)C(=O)O; ξF = NC(Cc1ccccc1)C(=O)O; ξA = CC(N)C(=O)O Where only a bound is given, the exact number is not on record here.

For orientation: GI50 means the concentration at which growth is held to half of that of the control.

Test systems include NCI-H522; SR; HCT-116; EKVX; KM12; NCI-H226; OVCAR-3; SN12C; HOP-62; UO-31; A549; RXF 393; T47D; SNB-19; SF-268; BT-549; CCRF-CEM; HL-60; TK-10; Malme-3M.
Common to all, as to assay: DTP human tumour cell line panel, 48 h

`COC(=O)c1cc(C#N)[nH]c1-c1cccs1`: the GI50 with NCI-H522 is 33.9 µM (inactive); in the assay on SR, > 100 µM (inactive); in the assay with HCT-116, > 100 µM (inactive); in the assay on EKVX it was 91.2 µM (inactive); in the assay with KM12 it was > 100 µM (inactive); in the assay on NCI-H226 it was > 100 µM (inactive). Further, the GI50 in the assay on OVCAR-3 is 56.5 µM (inactive); with SN12C, > 100 µM (inactive); with HOP-62, 47.8 µM (inactive); in the assay on UO-31, 81.8 µM (inactive); in the assay with A549, > 100 µM (inactive); with RXF 393, 22.6 µM (inactive). The GI50 is 24.4 µM (inactive) in the assay on T47D; > 100 µM (inactive) in the assay with SNB-19; > 100 µM (inactive) in the assay with SF-268; 31.8 µM (inactive) in the assay on BT-549; 48.6 µM (inactive) in the assay on CCRF-CEM.

With `CC1C(c2ccccc2)NC(c2ccccc2)CC1(N)C#N` (stereo not drawn), the GI50 in the assay with HL-60, with NCI-H522, in the assay with SR, in the assay on HCT-116, in the assay on EKVX and in the assay on KM12 was > 100 µM (inactive) in each case. For the same molecule, the GI50 in the assay on NCI-H226, in the assay on OVCAR-3, in the assay on SN12C, with HOP-62, in the assay with TK-10 and in the assay with UO-31 was > 100 µM (inactive) in each case. In addition, the GI50 with A549, in the assay with RXF 393, with T47D, with SNB-19, in the assay with SF-268 and in the assay on BT-549 was > 100 µM (inactive) throughout. Besides, the GI50 with CCRF-CEM is > 100 µM (inactive).

For the molecule `COc1ccc(-c2cc(-c3ccccc3)nc3c2CC(=O)Nc2ccccc2-3)cc1OC`, the GI50 in the assay with NCI-H522 was > 76.7 µM (inactive); in the assay on SR, 8.18 µM (inactive); in the assay with EKVX it was > 100 µM (inactive); in the assay with KM12 it was > 100 µM (inactive); with NCI-H226, 2.92 µM (inactive); in the assay with OVCAR-3, 4.07 µM (inactive). Moreover, the GI50 in the assay on SN12C was 1.26 µM (inactive); with HOP-62, 1.81 µM (inactive); in the assay with TK-10, > 56.1 µM (inactive); in the assay with UO-31, 5.69 µM (inactive); with RXF 393, 6.73 µM (inactive); with T47D, > 68.9 µM (inactive). In addition, the GI50 was 0.933 µM (active) in the assay on SF-268, > 100 µM (inactive) in the assay on BT-549 and > 100 µM (inactive) in the assay on CCRF-CEM.

Consider `COc1cc(OC)c(-c2oc3ccccc3c(=O)c2O)c(OC)c1`, for which the GI50 in the assay with HL-60 is 2.43 µM (inactive); with NCI-H522, 2.75 µM (inactive); with Malme-3M it was 2.86 µM (inactive); in the assay with SR, 3.69 µM (inactive); in the assay on HCT-116, 3.76 µM (inactive); with EKVX, 39.4 µM (inactive). Besides, the GI50 is 1.99 µM (inactive) in the assay on KM12; > 100 µM (inactive) in the assay with NCI-H226; 2.63 µM (inactive) with OVCAR-3; > 100 µM (inactive) in the assay with SN12C; > 100 µM (inactive) in the assay on TK-10; > 62.7 µM (inactive) in the assay on UO-31. Moreover, the GI50 in the assay with A549 was 4.9 µM (inactive); in the assay on RXF 393, 2.43 µM (inactive); in the assay with T47D, 4.16 µM (inactive); in the assay on SNB-19 it was > 57.1 µM (inactive); in the assay on SF-268, > 41.3 µM (inactive); with BT-549, 1.67 µM (inactive). Besides, the GI50 in the assay on CCRF-CEM was 6.75 µM (inactive).

Regarding `CC1NC(=O)[C@H](C)N(C)C(=O)[C@@H]2CCCN2C(=O)[C@@H](NC(=O)C(Cc2ccccc2)NC(=O)/C=C/C=C/C=C/C=C/C=C/C(=O)NC2=C(O)CCC2=O)COC(=O)[C@@H]2C[C@@H](C)CN2C1=O` (stereo partly drawn) (X28-[ξF]SP[NMeA][ξA][Pro(4R-Me)]; ester 2-C), the GI50 with HL-60, with NCI-H522, in the assay with Malme-3M, with SR, in the assay with HCT-116 and in the assay with EKVX was > 100 µM (inactive) throughout. In addition, the GI50 in the assay on KM12 is > 100 µM (inactive); in the assay on OVCAR-3, > 100 µM (inactive); with SN12C, > 100 µM (inactive); in the assay with HOP-62 it was > 100 µM (inactive); with TK-10, 54.8 µM (inactive); in the assay with UO-31, > 100 µM (inactive). The GI50 with A549, in the assay on RXF 393, with T47D, in the assay with SNB-19, with SF-268 and in the assay on BT-549 was > 100 µM (inactive) in each case. Moreover, the GI50 with CCRF-CEM was > 100 µM (inactive).

Consider `CCOC(=O)c1cn2c(n1)sc1cc(C)c(C)cc12`, for which the GI50 with NCI-H522 was 31 µM (inactive); in the assay with Malme-3M, 17.3 µM (inactive); with SR, 6.68 µM (inactive); with HCT-116, 17.9 µM (inactive); with EKVX it was 22.3 µM (inactive); in the assay with KM12, 15 µM (inactive). For the same molecule, the GI50 in the assay on NCI-H226 is 18.9 µM (inactive); with OVCAR-3 it was 17.5 µM (inactive); with SN12C, 19.1 µM (inactive); in the assay on HOP-62, 17.1 µM (inactive); in the assay with TK-10 it was 24.6 µM (inactive); in the assay with UO-31 it was 18.8 µM (inactive). Besides, the GI50 in the assay with A549 is 18.9 µM (inactive); in the assay on RXF 393, 22.1 µM (inactive); with T47D, 25.5 µM (inactive); in the assay on SNB-19 it was 20 µM (inactive); with SF-268, 24 µM (inactive); in the assay with BT-549, 28.7 µM (inactive). In addition, the GI50 with CCRF-CEM is 24.1 µM (inactive).

For the molecule `COc1ccc(NC2=NCCO2)c2c1CCCC2`, the GI50 is 15.5 µM (inactive) with HL-60; 31.8 µM (inactive) in the assay on NCI-H522; 34.1 µM (inactive) in the assay with Malme-3M; 29.2 µM (inactive) with SR; 28.8 µM (inactive) in the assay on HCT-116; 47.8 µM (inactive) in the assay on EKVX. Also, the GI50 is 42.6 µM (inactive) with KM12; 21.9 µM (inactive) in the assay on NCI-H226; 29.1 µM (inactive) in the assay with OVCAR-3; 51.3 µM (inactive) with TK-10; 53.5 µM (inactive) in the assay on UO-31; 40.7 µM (inactive) in the assay with A549. Besides, the GI50 in the assay with RXF 393 is 21.4 µM (inactive); in the assay with T47D, 35.2 µM (inactive); in the assay on SNB-19, 39.4 µM (inactive); in the assay with BT-549, 30.2 µM (inactive); in the assay with CCRF-CEM, 25.5 µM (inactive).

`CC(C)=CCN=C(N)N`: the GI50 in the assay with HL-60 is 45.8 µM (inactive); with NCI-H522, > 100 µM (inactive); in the assay with Malme-3M, > 100 µM (inactive); in the assay with SR, 16.7 µM (inactive); with HCT-116, > 100 µM (inactive); with EKVX, > 100 µM (inactive). Further, the GI50 in the assay on KM12, in the assay with NCI-H226, in the assay with SN12C, in the assay on TK-10, in the assay with UO-31 and with A549 was > 100 µM (inactive) each time. Further, the GI50 in the assay on RXF 393, with T47D, in the assay on SNB-19, in the assay on SF-268, with BT-549 and in the assay on CCRF-CEM was > 100 µM (inactive) each time.
